Results as given in patent US20230133958A1, “COMPOUNDS USEFUL IN MODULATING EGFR AND PI3K” (Mekanistic Therapeutics LLC, priority 2021, published 2023).

How the values were obtained:
EGFR = EGFR (Homo sapiens, UniProt P00533); experiment: Z'-LYTE / Adapta biochemical kinase assay, EGFR; conditions: for inhibition at 0.1 µM: concentration of 100 nM/liter, read-out: Percent Inhibition of target enzymes, EGFR
Source text: The Z′-LYTE® biochemical assay employs a fluorescence-based, coupled-enzyme format and is based on the differential sensitivity of phosphorylated and non-phosphorylated peptides to proteolytic cleavage. The peptide substrate is labeled with two fluorophores—one at each end—that make up a FRET pair. In the primary reaction, the kinase transfers the gamma-phosphate of ATP to a single tyrosine, serine or threonine residue in a synthetic FRET-peptide. In the secondary reaction, a site-specific protease recognizes and cleaves non-phosphorylated FRET-peptides. Phosphorylation of FRET-peptides suppresses cleavage by the Development Reagent. Cleavage disrupts FRET between the donor (i.e., coumarin) and acceptor (i.e., fluorescein) fluorophores on the FRET-peptide, whereas uncleaved, phosphorylated FRET-peptides maintain FRET. A ratiometric method, which calculates the ratio (the Emission Ratio) of donor emission to acceptor emission after excitation of the donor fluorophore at 400 nm, is used to quantitate reaction progress.
A significant benefit of this ratiometric method for quantitating reaction progress is the elimination of well-to-well variations in FRET-peptide concentration and signal intensities. As a result, the assay yields very high Z′-factor values (>0.7) at a low percent phosphorylation.
Both cleaved and uncleaved FRET-peptides contribute to the fluorescence signals and therefore to the Emission Ratio. The extent of phosphorylation of the FRET-peptide can be calculated from the Emission Ratio. The Emission Ratio will remain low if the FRET-peptide is phosphorylated (i.e., no kinase inhibition) and will be high if the FRET-peptide is non-phosphorylated (i.e., kinase inhibition).
Enzyme: The ADAPTA universal kinase assay is a homogenous, fluorescent based immunoassay for the detection of ADP. In contrast to ATP depletion assays, the ADAPTA assay is extremely sensitive to ADP formation such that a majority of the signal change occurs in the first 10-20% conversion of ATP to ADP. This makes the ADAPTA universal kinase assay ideally suited for use with low activity kinases.
The principle of the ADAPTA universal kinase assay is outlined below. The assay itself can be divided into two phases: a kinase reaction phase, and an ADP detection phase. In the kinase reaction phase, all components required for the kinase reaction are added to the well, and the reaction is allowed to incubate for 60 minutes. After the reaction, a detection solution consisting of a europium labeled anti-ADP antibody, an Alexa Fluor® 647 labeled ADP tracer, and EDTA (to stop the kinase reaction) is added to the assay well. ADP formed by the kinase reaction (in the absence of an inhibitor) will displace the Alexa Fluor® 647 labeled ADP tracer from the antibody, resulting in a decrease in the TR-FRET signal. In the presence of an inhibitor, the amount of ADP formed by the kinase reaction is reduced, and the resulting intact antibody-tracer interaction results in a high TR-FRET signal.
Test Compounds: The Test Compounds are screened in 1% DMSO (final) in the well. For 10 point titrations, 3-fold serial dilutions are conducted from the starting concentration of the customer’s choosing.
Peptide/Kinase Mixtures: All Peptide/Kinase Mixtures are diluted to a 2X working concentration in the appropriate Kinase Buffer.
ATP Solution: All ATP Solutions are diluted to a 4X working concentration in Kinase Buffer (50 mM HEPES pH 7.5, 0.01% BRIJ-35, 10 mM MgCl2,1 mM EGTA). ATP Km apparent is previously determined using a Z′-LYTE® assay.
Development Reagent Solution: The Development Reagent is diluted in Development Buffer.
Assay Protocol: Bar-coded Corning, low volume NBS, black 384-wellplate (Corning Cat. #4514) 1. 2.5 µL - 4X Test Compound or 100 nL 100X plus 2.4 µL kinase buffer. 2. 5 µL - 2X Peptide/Kinase Mixture. 3. 2.5 µL - 4X ATP Solution. 4. 30-second plate shake. 5. 60-minute Kinase Reaction incubation at room temperature. 6. 5 µL - Development Reagent Solution. 7. […]

COLO 205 = experiment: NCI COMPARE panel (SRB growth inhibition), COLO 205; assay type: cell-based; conditions: Homo sapiens; Colon Cancer, COLO 205, 48 h
Procedure: (§1) The human tumor cell lines of the cancer screening panel are grown in RPMI 1640 medium containing 5% fetal bovine serum and 2 mM L-glutamine. For a typical screening experiment, cells are inoculated into 96 well microtiter plates in 100 µL at plating densities ranging from 5,000 to 40,000 cells/well depending on the doubling time of individual cell lines. After cell inoculation, the microtiter plates are incubated at 37° C., 5% CO2, 95% air and 100% relative humidity for 24 h prior to addition of experimental drugs.
(§2) After 24 h, two plates of each cell line are fixed in situ with TCA, to represent a measurement of the cell population for each cell line at the time of drug addition (Tz). Experimental drugs are solubilized in dimethyl sulfoxide at 400-fold the desired final maximum test concentration and stored frozen prior to use. […]
(§3) Following drug addition, the plates are incubated for an additional 48 h at 37° C., 5 % CO2, 95% air, and 100% relative humidity. […] Bound stain is subsequently solubilized with 10 mM trizma base, and the absorbance is read on an automated plate reader at a wavelength of 515 nm. […] Using the seven absorbance measurements [time zero, (Tz), control growth, (C), and test growth in the presence of drug at the five concentration levels (Ti)], the percentage growth is calculated at each of the drug concentrations levels. Percentage growth inhibition is calculated as: […]

ACHN = experiment: NCI COMPARE panel (SRB growth inhibition), ACHN; assay type: cell-based; conditions: Homo sapiens, Renal Cancer, 48 h
Procedure: as §1, §2, §3

NCI-H322M = experiment: NCI COMPARE panel (SRB growth inhibition), NCI-H322M; assay type: cell-based; conditions: Homo sapiens, Non-Small Cell Lung Cancer, 48 h
Procedure: as §1, §2, §3

EGFR, sequence (P00533 25-1210): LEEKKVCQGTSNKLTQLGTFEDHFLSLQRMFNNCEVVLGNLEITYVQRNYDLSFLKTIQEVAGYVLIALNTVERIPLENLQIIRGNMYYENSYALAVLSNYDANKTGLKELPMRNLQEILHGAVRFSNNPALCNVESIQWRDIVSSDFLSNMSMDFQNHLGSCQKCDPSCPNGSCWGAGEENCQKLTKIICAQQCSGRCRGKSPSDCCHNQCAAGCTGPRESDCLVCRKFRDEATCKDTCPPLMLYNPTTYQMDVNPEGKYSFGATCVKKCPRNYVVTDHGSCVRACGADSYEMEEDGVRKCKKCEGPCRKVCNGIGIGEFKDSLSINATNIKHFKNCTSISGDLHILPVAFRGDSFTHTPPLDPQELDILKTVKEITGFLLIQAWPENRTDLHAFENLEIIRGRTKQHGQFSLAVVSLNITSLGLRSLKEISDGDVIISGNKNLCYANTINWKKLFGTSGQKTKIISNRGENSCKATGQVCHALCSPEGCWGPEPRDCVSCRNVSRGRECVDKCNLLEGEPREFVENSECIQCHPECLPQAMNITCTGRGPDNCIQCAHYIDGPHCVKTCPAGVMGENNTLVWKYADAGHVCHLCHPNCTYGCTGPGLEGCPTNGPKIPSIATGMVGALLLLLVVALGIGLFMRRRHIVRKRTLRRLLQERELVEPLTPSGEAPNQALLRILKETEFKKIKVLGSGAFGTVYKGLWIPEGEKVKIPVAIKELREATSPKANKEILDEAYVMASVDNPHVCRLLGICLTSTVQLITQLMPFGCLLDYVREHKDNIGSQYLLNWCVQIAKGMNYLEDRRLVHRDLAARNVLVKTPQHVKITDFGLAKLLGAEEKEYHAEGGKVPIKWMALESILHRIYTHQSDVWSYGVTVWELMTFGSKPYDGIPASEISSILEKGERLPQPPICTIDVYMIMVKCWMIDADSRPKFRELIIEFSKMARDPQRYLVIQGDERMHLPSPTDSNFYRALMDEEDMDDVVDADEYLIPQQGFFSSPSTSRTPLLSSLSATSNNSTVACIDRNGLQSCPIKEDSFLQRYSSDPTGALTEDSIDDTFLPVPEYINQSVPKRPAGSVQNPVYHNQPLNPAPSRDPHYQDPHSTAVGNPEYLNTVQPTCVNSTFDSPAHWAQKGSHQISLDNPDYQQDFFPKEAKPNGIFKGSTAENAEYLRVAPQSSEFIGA

| SMILES | IC50 (EGFR; EGFR) [µM] | inhibition at 0.1 µM (EGFR) [%] | GI50 (COLO 205) [µM] | GI50 (ACHN) [µM] | GI50 (NCI-H322M) [µM] |
| --- | --- | --- | --- | --- | --- |
| CS(=O)(=O)Nc1cc(-c2ccc3ncnc(Nc4cccc(Cl)c4F)c3c2)cnc1Cl [Compound 6, N-[2-chloro-5-[4-(3-chloro-2-fluoro-anilino)quinazolin-6-yl]-3-pyridyl] methanesulfonamide] | ≤ 0.002 | > 90 | 0.125 to 0.25 | 0.125 to 0.25 | 0.125 to 0.25 |
| CS(=O)(=O)Nc1cc(-c2ccc3ncc(C#N)c(Nc4cccc(Cl)c4F)c3c2)cnc1Cl [Compound 10, N-[2-chloro-5-[4-(3-chloro-2-fluoro-anilino)-3-cyano-6-quinolyl]-3-pyridyl]methanesulfonamide] |  | > 90 | 0.125 to 0.25 | > 0.25 | > 0.25 |
